Laboratory results from PubChem BioAssay AID1963846 (Molecular Pharmacology Branch, DTP, NCI, 2024).

System: 454973-116-R2-J3-PDC complex spheroid viability
Assay: Anticancer human tumor 454973-116-R2-J3-PDC patient-derived pancreatic carcinoma cell line growth inhibition [POLQ]
Settings: for IC50: curve of first compound; for viability, T/C: stronger effect = lower value
How it was run: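 PDC + HUVEC + MSC complex spheroids; POLQ inhibitors ± partner drugs; top conc. at/near clinical Cmax, else 10 microM (SN-38 1 microM), half-log dilutions; 37 degrees C, 5% CO2.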

[1] = second compound 0.0316 µM, first compound 0.0316 µM
[2] = second compound 0.0316 µM, first compound 0.1 µM
[3] = second compound 0.0316 µM, first compound 0.316 µM
[4] = second compound 0.0316 µM, first compound 1 µM
[5] = second compound 0.0316 µM, first compound 3.16 µM
[6] = second compound 0.0316 µM, first compound 10 µM
[7] = second compound 0.1 µM, first compound 0.0316 µM
[8] = second compound 0.1 µM, first compound 0.1 µM
[9] = second compound 0.1 µM, first compound 0.316 µM
[10] = second compound 0.1 µM, first compound 1 µM
[11] = second compound 0.1 µM, first compound 3.16 µM
[12] = second compound 0.1 µM, first compound 10 µM
[13] = second compound 0.316 µM, first compound 0.0316 µM
[14] = second compound 0.316 µM, first compound 0.1 µM
[15] = second compound 0.316 µM, first compound 0.316 µM
[16] = second compound 0.316 µM, first compound 1 µM
[17] = second compound 0.316 µM, first compound 3.16 µM
[18] = second compound 0.316 µM, first compound 10 µM
[19] = second compound 1 µM, first compound 0.0316 µM
[20] = second compound 1 µM, first compound 0.1 µM
[21] = second compound 1 µM, first compound 0.316 µM
[22] = second compound 1 µM, first compound 1 µM
[23] = second compound 1 µM, first compound 3.16 µM
[24] = second compound 1 µM, first compound 10 µM
[25] = second compound 3.16 µM, first compound 0.0316 µM
[26] = second compound 3.16 µM, first compound 0.1 µM
[27] = second compound 3.16 µM, first compound 0.316 µM
[28] = second compound 3.16 µM, first compound 1 µM
[29] = second compound 3.16 µM, first compound 3.16 µM
[30] = second compound 3.16 µM, first compound 10 µM
[31] = second compound 10 µM, first compound 0.0316 µM
[32] = second compound 10 µM, first compound 0.1 µM
[33] = second compound 10 µM, first compound 0.316 µM
[34] = second compound 10 µM, first compound 1 µM
[35] = second compound 10 µM, first compound 3.16 µM
[36] = second compound 10 µM, first compound 10 µM
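Note: spheroids exposed to drugs for seven days before measurement.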
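Throughout, for viability, T/C: percent viability relative to DMSO vehicle control wells taken as 100%.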

Question: `COc1cc2cc(C(=O)CCC(=O)O)sc2cc1OC` + COC1C(OC(N)=O)C(O)C(Oc2ccc3c(O)c(NC(=O)c4ccc(O)c(CC=C(C)C)c4)c(=O)oc3c2C)OC1(C)C was tested. Which IC50 (second compound 0.0316 µM) did it give?
Answer: > 10 µM

Question: What about the IC50 (second compound 0.1 µM) of the same compound?
Answer: > 10 µM

Question: What about the IC50 (second compound 0.316 µM) of the same compound?
Answer: > 10 µM

Question: And the IC50 (second compound 1 µM)?
Answer: > 10 µM

Question: What about the IC50 (second compound 3.16 µM) of the same compound?
Answer: > 10 µM

Question: What about the IC50 (second compound 10 µM) of the same compound?
Answer: > 10 µM

Question: And the viability, T/C [1]?
Answer: 95.3%

Question: And the viability, T/C [2]?
Answer: 100%

Question: What about the viability, T/C [3] of the same compound?
Answer: 102%

Question: And the viability, T/C [4]?
Answer: 121%

Question: And the viability, T/C [5]?
Answer: 113%

Question: And the viability, T/C [6]?
Answer: 96%

Question: And the viability, T/C [7]?
Answer: 101%

Question: And the viability, T/C [8]?
Answer: 115%

Question: And the viability, T/C [9]?
Answer: 99.3%

Question: And the viability, T/C [10]?
Answer: 118%

Question: And the viability, T/C [11]?
Answer: 111%

Question: What about the viability, T/C [12] of the same compound?
Answer: 102%

Question: And the viability, T/C [13]?
Answer: 109%

Question: What about the viability, T/C [14] of the same compound?
Answer: 110%

Question: And the viability, T/C [15]?
Answer: 120%

Question: And the viability, T/C [16]?
Answer: 110%

Question: What about the viability, T/C [17] of the same compound?
Answer: 104%

Question: What about the viability, T/C [18] of the same compound?
Answer: 97.2%

Question: What about the viability, T/C [19] of the same compound?
Answer: 107%

Question: And the viability, T/C [20]?
Answer: 102%

Question: What about the viability, T/C [21] of the same compound?
Answer: 127%

Question: What about the viability, T/C [22] of the same compound?
Answer: 110%

Question: And the viability, T/C [23]?
Answer: 107%

Question: And the viability, T/C [24]?
Answer: 93.8%

Question: And the viability, T/C [25]?
Answer: 110%

Question: And the viability, T/C [26]?
Answer: 103%

Question: And the viability, T/C [27]?
Answer: 105%

Question: What about the viability, T/C [28] of the same compound?
Answer: 112%

Question: What about the viability, T/C [29] of the same compound?
Answer: 105%

Question: What about the viability, T/C [30] of the same compound?
Answer: 93%

Question: What about the viability, T/C [31] of the same compound?
Answer: 114%

Question: What about the viability, T/C [32] of the same compound?
Answer: 102%

Question: And the viability, T/C [33]?
Answer: 93.6%

Question: And the viability, T/C [34]?
Answer: 100%

Question: And the viability, T/C [35]?
Answer: 99.4%

Question: What about the viability, T/C [36] of the same compound?
Answer: 90.5%

Question: `O=C(c1cc(Cc2n[nH]c(=O)c3ccccc23)ccc1F)N1CCN(C(=O)C2CC2)CC1` + Cc1cccc(N(C)C(=O)C2C(O)CCN2c2nc(C)cc(C(F)(F)F)c2C#N)c1 was tested. Which IC50 (second compound 0.0316 µM) did it give?
Answer: > 10 µM

Question: What about the IC50 (second compound 0.1 µM) of the same compound?
Answer: > 10 µM

Question: What about the IC50 (second compound 0.316 µM) of the same compound?
Answer: > 10 µM

Question: And the IC50 (second compound 1 µM)?
Answer: > 10 µM

Question: And the IC50 (second compound 3.16 µM)?
Answer: > 10 µM

Question: And the IC50 (second compound 10 µM)?
Answer: > 10 µM

Question: What about the viability, T/C [1] of the same compound?
Answer: 99.8%

Question: And the viability, T/C [2]?
Answer: 107%

Question: What about the viability, T/C [3] of the same compound?
Answer: 95.3%

Question: What about the viability, T/C [4] of the same compound?
Answer: 103%

Question: What about the viability, T/C [5] of the same compound?
Answer: 98%

Question: What about the viability, T/C [6] of the same compound?
Answer: 61.4%

Question: And the viability, T/C [7]?
Answer: 94.7%

Question: And the viability, T/C [8]?
Answer: 103%

Question: And the viability, T/C [9]?
Answer: 103%

Question: What about the viability, T/C [10] of the same compound?
Answer: 99.3%

Question: What about the viability, T/C [11] of the same compound?
Answer: 91.4%

Question: And the viability, T/C [12]?
Answer: 64.8%

Question: And the viability, T/C [13]?
Answer: 99.1%

Question: What about the viability, T/C [14] of the same compound?
Answer: 110%

Question: What about the viability, T/C [15] of the same compound?
Answer: 106%

Question: What about the viability, T/C [16] of the same compound?
Answer: 106%

Question: What about the viability, T/C [17] of the same compound?
Answer: 94.5%

Question: And the viability, T/C [18]?
Answer: 61%

Question: And the viability, T/C [19]?
Answer: 105%

Question: And the viability, T/C [20]?
Answer: 96.8%

Question: And the viability, T/C [21]?
Answer: 109%

Question: And the viability, T/C [22]?
Answer: 102%

Question: What about the viability, T/C [23] of the same compound?
Answer: 91.1%

Question: And the viability, T/C [24]?
Answer: 62%

Question: What about the viability, T/C [25] of the same compound?
Answer: 108%

Question: And the viability, T/C [26]?
Answer: 98.5%

Question: What about the viability, T/C [27] of the same compound?
Answer: 104%

Question: What about the viability, T/C [28] of the same compound?
Answer: 96.2%

Question: And the viability, T/C [29]?
Answer: 96.3%

Question: What about the viability, T/C [30] of the same compound?
Answer: 62.6%

Question: And the viability, T/C [31]?
Answer: 108%

Question: What about the viability, T/C [32] of the same compound?
Answer: 105%

Question: And the viability, T/C [33]?
Answer: 102%

Question: And the viability, T/C [34]?
Answer: 98.4%

Question: What about the viability, T/C [35] of the same compound?
Answer: 92%

Question: What about the viability, T/C [36] of the same compound?
Answer: 57.7%

Question: `Nc1ccn(C2OC(CO)C(O)C2(F)F)c(=O)n1` (stereo unspecified) + COC1C(OC(N)=O)C(O)C(Oc2ccc3c(O)c(NC(=O)c4ccc(O)c(CC=C(C)C)c4)c(=O)oc3c2C)OC1(C)C was tested. Which IC50 (second compound 0.0316 µM) did it give?
Answer: < 0.0316 µM

Question: And the IC50 (second compound 0.1 µM)?
Answer: < 0.0316 µM

Question: What about the IC50 (second compound 0.316 µM) of the same compound?
Answer: < 0.0316 µM

Question: And the IC50 (second compound 1 µM)?
Answer: < 0.0316 µM

Question: And the IC50 (second compound 3.16 µM)?
Answer: < 0.0316 µM

Question: What about the IC50 (second compound 10 µM) of the same compound?
Answer: < 0.0316 µM

Question: What about the viability, T/C [1] of the same compound?
Answer: 14.4%

Question: What about the viability, T/C [2] of the same compound?
Answer: 8.27%

Question: And the viability, T/C [3]?
Answer: 11.6%

Question: What about the viability, T/C [4] of the same compound?
Answer: 11.3%

Question: What about the viability, T/C [5] of the same compound?
Answer: 11.7%

Question: What about the viability, T/C [6] of the same compound?
Answer: 12.9%

Question: What about the viability, T/C [7] of the same compound?
Answer: 12.6%

Question: And the viability, T/C [8]?
Answer: 11.2%

Question: What about the viability, T/C [9] of the same compound?
Answer: 10.2%

Question: What about the viability, T/C [10] of the same compound?
Answer: 11.4%

Question: What about the viability, T/C [11] of the same compound?
Answer: 11.2%

Question: What about the viability, T/C [12] of the same compound?
Answer: 10.5%

Question: And the viability, T/C [13]?
Answer: 10.3%

Question: What about the viability, T/C [14] of the same compound?
Answer: 9.75%

Question: And the viability, T/C [15]?
Answer: 10.9%

Question: And the viability, T/C [16]?
Answer: 11%

Question: And the viability, T/C [17]?
Answer: 15.1%

Question: What about the viability, T/C [18] of the same compound?
Answer: 10.2%

Question: And the viability, T/C [19]?
Answer: 12%

Question: And the viability, T/C [20]?
Answer: 11.9%

Question: And the viability, T/C [21]?
Answer: 13.1%

Question: What about the viability, T/C [22] of the same compound?
Answer: 13.4%

Question: And the viability, T/C [23]?
Answer: 11.2%

Question: And the viability, T/C [24]?
Answer: 14.5%

Question: And the viability, T/C [25]?
Answer: 12.2%

Question: What about the viability, T/C [26] of the same compound?
Answer: 15.2%

Question: What about the viability, T/C [27] of the same compound?
Answer: 11.4%

Question: What about the viability, T/C [28] of the same compound?
Answer: 10.9%

Question: What about the viability, T/C [29] of the same compound?
Answer: 11%

Question: And the viability, T/C [30]?
Answer: 11.1%

Question: And the viability, T/C [31]?
Answer: 13.2%

Question: What about the viability, T/C [32] of the same compound?
Answer: 10.8%

Question: What about the viability, T/C [33] of the same compound?
Answer: 12.5%

Question: What about the viability, T/C [34] of the same compound?
Answer: 12.4%

Question: What about the viability, T/C [35] of the same compound?
Answer: 11.9%

Question: And the viability, T/C [36]?
Answer: 12%
